# Laboratory results taken from publication PMC5520492, “Inhibition of DNA2 nuclease as a therapeutic strategy targeting replication stress in cancer cells” (Oncogenesis, 2017).
# How the values were obtained:
# Format in all cases: cell-based, human
# U2OS cells [1] = test: Cell cycle distribution (BrdU, flow cytometry); conditions: highest tested concentration 0.6 μM, 24 h; slight decrease of G1, increase of G2
# Method: Apoptosis was measured by flow cytometry using the Annexin V FITC assay kit based on the protocol from the manufacturer (Invitrogen). For BrdU (bromodeoxyuridine (5-bromo-2′-deoxyuridine)) analysis, after treatments, cells were labeled with BrdU (Sigma) for 30 min before fixation with 70% cold ethanol (−20 °C). The next day, cells were washed with cold phosphate-buffered saline and incubated with 2 M HCl for 5 min at room temperature. After adjusting the pH with 0.1 M sodium borate (pH 8.5), cells were incubated in 1% bovine serum albumin with 0.1% Triton X-100 for 30 min and mouse anti-BrdU antibody (1:400) for 1 h to detect BrdU labeling. After washing, cells were incubated with secondary antibody (fluorescein isothiocyanate 1:400) for 30 min. […] For fluorescence-activated cell sorting analysis, the percentage of cells with positive BrdU staining in each phase of the cell cycle was quantitated with the CellQuest software and ModFit software (Verity Software House Inc., Topsham, ME, USA).
# Figure S7: Cell cycle distribution of U2OS cells upon treatment with NSC-105808. (a) U2OS cells were treated with DMSO or the indicated concentration of NSC-105808 for 24 hrs followed by a pulse of BrdU (10 µM) for 30 minutes and then analyzed by flow cytometry. […] (c) Quantitation of the G1 cell population. […]
# U2OS cells [2] = test: RPA phosphorylation after camptothecin (immunofluorescence, chromatin fractionation); conditions: NSC-105808 2 h, 0.3 μM; CPT 2 h, 1 μM
# Method: Figure 4 NSC-105808 inhibits HR repair and DSB end resection. (a) Analysis of HR efficiency with the DR-green fluorescent protein (GFP) assay. Representative images of flow cytometry analysis and bar graph showing percentage of GFP cells from at least three independent experiments. Each value represents the mean±s.d. (b, c) Analysis of RPA phosphorylation in U2OS cells treated with NSC-105808 (2 h, 0.3 μM) and/or camptothecin (CPT; 2 h, 1 μM). (b) Representative images of cells subjected to immunofluorescent staining of p-RPA and bar graph showing percentage of cells with positive p-RPA staining from three independent experiments. Each value represents the mean±s.d. (c) Western blot analysis of chromatin fraction with the indicated antibodies. (d) Analysis of colony formation by FANCD2 (+/+) and FANCD2 (−/−) cells treated with cisplatin and/or NSC-105808. Each value is relative to the untreated control group of each cell line. The graph represents the mean±s.e.m. from three independent experiments. *P<0.01.
# For the detection of DNA damage-induced p-RPA34 (S4/S8), immunofluorescent staining, and the preparation of chromatin fractions and western blot analyses were performed as described previously.[33], [48]
# [3] = system: MCF10A cells with inducible H-Ras expression; test: MTT proliferation, MCF10A with inducible H-Ras; conditions: 48-h treatment, doxycycline induction
# Method: Figure 5 Oncogene induction enhances sensitivity of cancer cells to NSC-105808. (a-e) Graphs showing proliferation of indicated cell lines in response to a 48-h treatment with the indicated concentrations of NSC-105808. Proliferation relative to cells treated with vehicle alone was determined by the 3-(4,5-dimethylthiazol-2-yl)-2,5-diphenyltetrazolium bromide (MTT) assay. Each value represents the mean±s.e.m. from three independent experiments. (a) Proliferation of control pancreatic epithelial cells DT-PD59 and transformed pancreatic cancer cells AsPC-1 and PANC-1. (b) Proliferation of normal breast epithelial cells MCF10A and breast cancer cells Hs578T and BT549. (c) Proliferation of MCF10A cells with or without H-Ras expression. H-Ras was induced with doxycycline (2 μg/ml). […]
# Cell proliferation was measured by 3-(4,5-dimethylthiazol-2-yl)-2,5-diphenyltetrazolium bromide (Sigma) reduction (Supplementary Materials and Methods).
# To determine the cell proliferation rate, 1000 cells/well were seeded in a 96-well plate in a total volume of 100 µl in triplicate in each experiment. […] Plates were read at 490 nm and 650 nm (background) in a
# microplate reader (Molecular Devices). After the subtraction of background, cell viability was calculated as fold change relative to control cells.
compound,measurement,setting,value
"NC1=C(Br)C(=O)c2ncccc2C1=O [NSC-105808, 6-amino-7-bromoquinoline-5,8-dione]",Impact on cell cycle distribution,U2OS cells [1],only a mild impact
same,Accumulation of camptothecin-induced p-RPA,U2OS cells [2],significantly attenuated
same,γ-H2AX level in chromatin fraction,U2OS cells [2],concomitant enhancement
same,Sensitivity upon activation of H-Ras,[3],increased sensitivity
